Measurements published in patent publication US20260008818A1, “CYCLIC PEPTIDE OR SALT THEREOF, AND USES THEREOF” (FUJIFILM Corporation, priority 2023, published 2026).
Bridge positions count the residues as written; N and C are the ends. Ends that are not written are not given here. COCH2 = acetyl group that carries the bridge

Tested on: Recombinant Human FGFR1 alpha (IIIc) Fc Chimera Protein
Assay: Binding affinity of enzymatically synthesized cyclic peptide to FGFR by ELISA
Details: luminescence signal at reaction concentration 10 nmol/L, SEQ ID NO: 39 standardized to 1, enzyme synthesis product
Procedure, shortened: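 Plate-immobilized FGFR1α(IIIc)-Fc (5 ng/well) incubated with Myc-tagged cyclic peptide 3 h at room temperature; bound peptide detected with anti-Myc antibody (2 h) and chemiluminescence. Signal is FGFR minus no-FGFR wells, normalized to SEQ ID NO: 39 at 10 nmol/L and graded A–D.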

Row | Substance | Evaluation result of binding affinity to FGFR
1 | 190 (HCSYERLQFHGHHAPFRVK(COCH2)V; thioether 2-19 via Ac) [compound 190] | A (0.7 or more)
2 | 191 (HCSYERLQFHGHEAPFLVK(COCH2)V; thioether 2-19 via Ac) [compound 191] | A (0.7 or more)
3 | 192 (HCSYERLQFHGHEAPFIVK(COCH2)V; thioether 2-19 via Ac) [compound 192] | A (0.7 or more)
4 | 193 (HCSYERLQFHGHEAPFVVK(COCH2)V; thioether 2-19 via Ac) [compound 193] | A (0.7 or more)
5 | 194 (HCSYERLQFHGHEAPFFVK(COCH2)V; thioether 2-19 via Ac) [compound 194] | A (0.7 or more)
6 | 195 (HCSYERLQFHGHEAPFYVK(COCH2)V; thioether 2-19 via Ac) [compound 195] | A (0.7 or more)
7 | 196 (HCSYERLQFHGHEAPFWVK(COCH2)V; thioether 2-19 via Ac) [compound 196] | A (0.7 or more)
8 | 197 (HCSYERLQFHGHEAPFNVK(COCH2)V; thioether 2-19 via Ac) [compound 197] | A (0.7 or more)
9 | 198 (HCSYERLQFHGHEAPFQVK(COCH2)V; thioether 2-19 via Ac) [compound 198] | B (0.5 or more and less than 0.7)
10 | 199 (HCSYERLQFHGHEAPFSVK(COCH2)V; thioether 2-19 via Ac) [compound 199] | B (0.5 or more and less than 0.7)
11 | 200 (HCSYERLQFHGHEAPFTVK(COCH2)V; thioether 2-19 via Ac; not fully specified) [compound 200] | A (0.7 or more)
12 | 201 (HCSYERLQFHGHEAPFHVK(COCH2)V; thioether 2-19 via Ac; not fully specified) [compound 201] | A (0.7 or more)
13 | 202 (HCSYERLQFHGHEAPFRLK(COCH2)V; thioether 2-19 via Ac; not fully specified) [compound 202] | C (0.1 or more and less than 0.5)
14 | 203 (HCSYERLQFHGHEAPFRIK(COCH2)V; thioether 2-19 via Ac; not fully specified) [compound 203] | A (0.7 or more)
15 | 204 (HCSYERLQFHGHEAPFRFK(COCH2)V; thioether 2-19 via Ac; not fully specified) [compound 204] | C (0.1 or more and less than 0.5)
16 | 205 (HCSYERLQFHGHEAPFRYK(COCH2)V; thioether 2-19 via Ac; not fully specified) [compound 205] | B (0.5 or more and less than 0.7)
17 | 206 (HCSYERLQFHGHEAPFRNK(COCH2)V; thioether 2-19 via Ac; not fully specified) [compound 206] | C (0.1 or more and less than 0.5)
18 | 207 (HCSYERLQFHGHEAPFRSK(COCH2)V; thioether 2-19 via Ac; not fully specified) [compound 207] | C (0.1 or more and less than 0.5)
19 | 208 (HCSYERLQFHGHEAPFRTK(COCH2)V; thioether 2-19 via Ac; not fully specified) [compound 208] | C (0.1 or more and less than 0.5)

Row | Substance | Evaluation result of binding affinity to FGFR
20 | 209 (HCSYERLQFHGHEAPFRHK(COCH2)V; thioether 2-19 via Ac; not fully specified) [compound 209] | B (0.5 or more and less than 0.7)
21 | 210 (HCSYERLQFHGHEAPFRVK(COCH2)G; thioether 2-19 via Ac; not fully specified) [compound 210] | B (0.5 or more and less than 0.7)
22 | 211 (HCSYERLQFHGHEAPFRVK(COCH2)L; thioether 2-19 via Ac; not fully specified) [compound 211] | A (0.7 or more)
23 | 212 (HCSYERLQFHGHEAPFRVK(COCH2)I; thioether 2-19 via Ac; not fully specified) [compound 212] | A (0.7 or more)
24 | 213 (HCSYERLQFHGHEAPFRVK(COCH2)Y; thioether 2-19 via Ac; not fully specified) [compound 213] | A (0.7 or more)
25 | 214 (HCSYERLQFHGHEAPFRVK(COCH2)F; thioether 2-19 via Ac; not fully specified) [compound 214] | B (0.5 or more and less than 0.7)
26 | 215 (HCSYERLQFHGHEAPFRVK(COCH2)W; thioether 2-19 via Ac; not fully specified) [compound 215] | B (0.5 or more and less than 0.7)
27 | 216 (HCSYERLQFHGHEAPFRVK(COCH2)N; thioether 2-19 via Ac; not fully specified) [compound 216] | A (0.7 or more)
28 | 217 (HCSYERLQFHGHEAPFRVK(COCH2)Q; thioether 2-19 via Ac; not fully specified) [compound 217] | A (0.7 or more)
29 | 218 (HCSYERLQFHGHEAPFRVK(COCH2)S; thioether 2-19 via Ac; not fully specified) [compound 218] | A (0.7 or more)
30 | 219 (HCSYERLQFHGHEAPFRVK(COCH2)T; thioether 2-19 via Ac; not fully specified) [compound 219] | A (0.7 or more)
31 | 220 (HCSYERLQFHGHEAPFRVK(COCH2)D; thioether 2-19 (inferred)) [compound 220] | C (0.1 or more and less than 0.5)
32 | 221 (HCSYERLQFHGHEAPFRVK(COCH2)E; thioether 2-19 (inferred)) [compound 221] | A (0.7 or more)
33 | 222 (HCSYERLQFHGHEAPFRVK(COCH2)R; thioether 2-19 (inferred)) [compound 222] | A (0.7 or more)
34 | 223 (HCSYERLQFHGHEAPFRVK(COCH2)H; thioether 2-19 (inferred)) [compound 223] | A (0.7 or more)
35 | 224 (HK(COCH2)SYERLQFHGHEAPFRVCV; thioether 2-19 (inferred)) [compound 224] | B (0.5 or more and less than 0.7)
36 | 225 (HCTWERLIFLGHIAPFWVK(COCH2)R; thioether 2-19 (inferred)) [compound 225] | C (0.1 or more and less than 0.5)
37 | 226 (HK(COCH2)TWERLIFLGHIAPFWVCR; thioether 2-19 (inferred)) [compound 226] | B (0.5 or more and less than 0.7)
38 | 227 (YK(COCH2)TWERLIFLGHIAPFWVCR; thioether 2-19 (inferred)) [compound 227] | C (0.1 or more and less than 0.5)

The remaining lines, values ahead:

Row | Evaluation result of binding affinity to FGFR | Substance
39 | C (0.1 or more and less than 0.5) | 228 (RK(COCH2)TWERLIFLGHIAPFWVCR; thioether 2-19 (inferred)) [compound 228]
40 | B (0.5 or more and less than 0.7) | 229 (HK(COCH2)VWERLIFLGHIAPFWVCR; thioether 2-19 (inferred)) [compound 229]
41 | B (0.5 or more and less than 0.7) | 230 (HK(COCH2)QWERLIFLGHIAPFWVCR; thioether 2-19 (inferred)) [compound 230]
42 | B (0.5 or more and less than 0.7) | 231 (HK(COCH2)TFERLIFLGHIAPFWVCR; thioether 2-19 (inferred)) [compound 231]
43 | B (0.5 or more and less than 0.7) | 232 (HK(COCH2)TYERLIFLGHIAPFWVCR; thioether 2-19 (inferred)) [compound 232]
44 | B (0.5 or more and less than 0.7) | 233 (HK(COCH2)TWERLVFLGHIAPFWVCR; thioether 2-19 (inferred)) [compound 233]
45 | A (0.7 or more) | 234 (HK(COCH2)TWERLRFLGHIAPFWVCR; thioether 2-19 (inferred)) [compound 234]
46 | A (0.7 or more) | 235 (HK(COCH2)TWERLIFRGHIAPFWVCR; thioether 2-19 (inferred)) [compound 235]
47 | A (0.7 or more) | 236 (HK(COCH2)TWERLIFQGHIAPFWVCR; thioether 2-19 (inferred)) [compound 236]
48 | B (0.5 or more and less than 0.7) | 237 (HK(COCH2)TWERLIFLGHLAPFWVCR; thioether 2-19 (inferred)) [compound 237]
49 | B (0.5 or more and less than 0.7) | 238 (HK(COCH2)TWERLIFLGHVAPFWVCR; thioether 2-19 (inferred)) [compound 238]
50 | B (0.5 or more and less than 0.7) | 239 (HK(COCH2)TWERLIFLGHIAPFLVCR; thioether 2-19 (inferred)) [compound 239]
51 | A (0.7 or more) | 240 (HK(COCH2)TWERLIFLGHIAPFHVCR; thioether 2-19 (inferred)) [compound 240]
52 | B (0.5 or more and less than 0.7) | 241 (HK(COCH2)TWERLIFLGHIAPFWVCV; thioether 2-19 (inferred)) [compound 241]
53 | A (0.7 or more) | 242 (HK(COCH2)TWERLIFLGHIAPFWVCS; thioether 2-19 (inferred)) [compound 242]
54 | C (0.1 or more and less than 0.5) | 243 (LCRYVKLRVGLHIAPFLIK(COCH2)S; thioether 2-19 (inferred)) [compound 243]
